Experimental findings from ChEMBL document CHEMBL2163284, “Targeting the S1 and S3 subsite of trypsin with unnatural cationic amino acids generates antimicrobial peptides with potential for oral administration” (J Med Chem, 2012) are described below.

Series [1] can be described thus: Chemical stability assessed as half life at 1 mg/ml in presence of trypsin incubated for 24 hrs by RP-HPLC. It counts as physicochemical. As to conditions: for half-life at 1 mg/ml: trypsin; for t1/2: isolated protein, 24 h.
For series [2], the system named is Staphylococcus aureus. Briefly: Antimicrobial activity against Staphylococcus aureus ATCC 25923 by serial dilution method. In kind it is functional.
The subject of series [3] is Staphylococcus aureus. The experiment in a line: Antimicrobial activity against methicillin-resistant Staphylococcus aureus ATCC 33591 by serial dilution method. In kind it is functional.
The nature of series [4]: Binding affinity to trypsin at 25 degC by isothermal calorimetry.
Series [5] can be described thus: Half life in CD1 mouse stomach whole organ extracts assessed as half life at 1 mg/ml at 37 degC at pH 7.4 by HPLC. In kind it is ADME, tissue-based.
Series [6] is described as follows: Half life in CD1 mouse duodenum whole organ extracts assessed as half life at 1 mg/ml at 37 degC by HPLC. It counts as ADME, tissue-based.
Series [7] can be described thus: Half life in CD1 mouse liver whole organ extracts assessed as half life at 1 mg/ml at 37 degC by HPLC. It counts as ADME, tissue-based.

Converted amounts (≈) assume the structure as drawn. Non-standard residues stand in square brackets, D forms with d. Residues, ends and D or L forms follow the SMILES beside them. *: point of attachment. Phe(4-guanidino) = N=C(N)Nc1ccc(C[C@H](N)C(=O)O)cc1; Bip = N[C@@H](Cc1ccc(-c2ccccc2)cc1)C(=O)O; Phe(4-NH2) = Nc1ccc(C[C@H](N)C(=O)O)cc1; hArg = N=C(N)NCCCC[C@H](N)C(=O)O; Agp = N=C(N)NC[C@H](N)C(=O)O; Orn = NCCC[C@H](N)C(=O)O; NHBn = c1ccc(CN*)cc1

In the case of `N=C(N)NCCCC[C@H](N)C(=O)N[C@@H](Cc1ccc(-c2ccccc2)cc1)C(=O)N[C@@H](CCCNC(=N)N)C(=O)NCc1ccccc1` (H-[hArg]-[Bip]-Arg-NHBn), the half-life at 1 mg/ml in series [1] is 1.9 h. The MIC against Staphylococcus aureus [2] is less than 2.5 µg/mL; with Staphylococcus aureus [3] it was 10 µg/mL (≈ 15.2 µM).

Take `N=C(N)NCCCC[C@H](NC(=O)[C@H](Cc1ccc(-c2ccccc2)cc1)NC(=O)[C@@H](N)CCCNC(=N)N)C(=O)NCc1ccccc1` (H-Arg-[Bip]-[hArg]-NHBn): the Kd in series [4] is 48.4 µM. Moreover, the t1/2 entry in series [1] is “Stable”. In addition, the half-life at 1 mg/ml in series [5] was determined as 6.69 h; in series [6], 1.37 h; in series [7], 1.07 h. Further, the minimum inhibitory concentration (MIC) with Staphylococcus aureus [2] is 5 µg/mL (≈ 7.61 µM); against Staphylococcus aureus [3], 10 µg/mL (≈ 15.2 µM).

In turn, `N=C(N)NCCC[C@H](N)C(=O)N[C@@H](Cc1ccc(-c2ccccc2)cc1)C(=O)N[C@@H](CCCCN)C(=O)NCc1ccccc1` (H-Arg-[Bip]-Lys-NHBn) registered a Kd in series [4] of 20 µM. Moreover, the half-life at 1 mg/ml in series [1] is 2.8 h. Also, the MIC against Staphylococcus aureus [2] and in the series with Staphylococcus aureus [3] was 10 µg/mL (≈ 16.3 µM) each time.

`NCCCC[C@H](NC(=O)[C@H](Cc1ccc(-c2ccccc2)cc1)NC(=O)[C@@H](N)CCCCN)C(=O)NCc1ccccc1` (H-Lys-[Bip]-Lys-NHBn): in series [4], the equilibrium dissociation constant (Kd) is 21 µM. Further, the half-life at 1 mg/ml in series [1] is 4.5 h. Further, the MIC stood at 25 µg/mL (≈ 42.6 µM) in the series with Staphylococcus aureus [2] and 15 µg/mL (≈ 25.6 µM) in the series on Staphylococcus aureus [3].

Turning to `N=C(N)NC[C@H](NC(=O)[C@H](Cc1ccc(-c2ccccc2)cc1)NC(=O)[C@@H](N)CNC(=N)N)C(=O)NCc1ccccc1` (H-[Agp]-[Bip]-[Agp]-NHBn), the t1/2 result in series [1] is recorded as “Stable”. Besides, the MIC stood at 10 µg/mL (≈ 17 µM) in the series on Staphylococcus aureus [2] and 15 µg/mL (≈ 25.6 µM) against Staphylococcus aureus [3].

In series [4], `N=C(N)NCCC[C@H](NC(=O)[C@H](Cc1ccc(-c2ccccc2)cc1)NC(=O)[C@@H](N)CCCNC(=N)N)C(=O)NCc1ccccc1` (H-Arg-[Bip]-Arg-NHBn) yielded a Kd of 11.3 µM. The half-life at 1 mg/ml in series [1] was 1 h; in series [5], 0.167 h; in series [6], 0.102 h; in series [7] it was 1.76 h. For the same compound, the MIC in the series on Staphylococcus aureus [2] and with Staphylococcus aureus [3] was 10 µg/mL (≈ 15.6 µM) in each case.

For `N=C(N)NCCC[C@H](N)C(=O)N[C@@H](Cc1ccc(-c2ccccc2)cc1)C(=O)N[C@@H](Cc1ccc(NC(=N)N)cc1)C(=O)NCc1ccccc1`, the Kd in series [4] came to 5.3 µM. In series [1], the half-life at 1 mg/ml was 4.1 h. For the same compound, the MIC against Staphylococcus aureus [2] and in the series on Staphylococcus aureus [3] was 5 µg/mL (≈ 7.24 µM) in each case.

`N=C(N)NCCC[C@H](N)C(=O)N[C@@H](Cc1ccc(N)cc1)C(=O)N[C@@H](Cc1ccc(-c2ccccc2)cc1)C(=O)NCc1ccccc1` (H-Arg-[Phe(4-NH2)]-[Bip]-NHBn): in series [4], the Kd was 2.6 µM. In series [1], the t1/2 result was “Stable”. The MIC in the series with Staphylococcus aureus [2] turned out to be 15 µg/mL (≈ 23.1 µM); with Staphylococcus aureus [3], 10 µg/mL (≈ 15.4 µM).

With `N=C(N)NCCC[C@H](N)C(=O)N[C@@H](Cc1ccc(-c2ccccc2)cc1)C(=O)N[C@@H](CCCN)C(=O)NCc1ccccc1` (H-Arg-[Bip]-[Orn]-NHBn), binding in series [4] was put at a Kd of 57.2 µM. In addition, the t1/2 result in series [1] is “Stable”. The MIC stood at 5 µg/mL (≈ 8.32 µM) in the series on Staphylococcus aureus [2] and 10 µg/mL (≈ 16.6 µM) against Staphylococcus aureus [3].

For the compound `N=C(N)Nc1ccc(C[C@H](NC(=O)[C@H](Cc2ccc(-c3ccccc3)cc2)NC(=O)[C@@H](N)Cc2ccc(NC(=N)N)cc2)C(=O)NCc2ccccc2)cc1` (H-[Phe(4-guanidino)]-[Bip]-[Phe(4-guanidino)]-NHBn), the half-life at 1 mg/ml in series [1] is 2.2 h. The MIC with Staphylococcus aureus [2] is less than 2.5 µg/mL; in the series with Staphylococcus aureus [3] it was 5 µg/mL (≈ 6.77 µM).

In series [4], `N=C(N)NCCC[C@H](NC(=O)[C@H](Cc1ccc(-c2ccccc2)cc1)NC(=O)[C@@H](N)CCCCN)C(=O)NCc1ccccc1` (H-Lys-[Bip]-Arg-NHBn) registered a Kd of 11.6 µM. For the same compound, the half-life at 1 mg/ml in series [1] is 1.8 h. The MIC against Staphylococcus aureus [2] and in the series on Staphylococcus aureus [3] was 10 µg/mL (≈ 16.3 µM) in each case.

In series [4], `N=C(N)NCCC[C@H](NC(=O)[C@H](Cc1ccc(-c2ccccc2)cc1)NC(=O)[C@@H](N)CCCN)C(=O)NCc1ccccc1` (H-[Orn]-[Bip]-Arg-NHBn) returned a dissociation constant Kd of 37.2 µM. For the same compound, in series [1], the half-life at 1 mg/ml was 5.1 h. Moreover, the MIC against Staphylococcus aureus [2] came to 15 µg/mL (≈ 25 µM); with Staphylococcus aureus [3], 25 µg/mL (≈ 41.6 µM).

For the compound `N=C(N)NCCC[C@H](NC(=O)[C@H](Cc1ccc(-c2ccccc2)cc1)NC(=O)[C@@H](N)CNC(=N)N)C(=O)NCc1ccccc1` (H-[Agp]-[Bip]-Arg-NHBn), the half-life at 1 mg/ml in series [1] is 1.4 h. Besides, the MIC in the series on Staphylococcus aureus [2] and with Staphylococcus aureus [3] was 10 µg/mL (≈ 16.3 µM) throughout.

`N=C(N)Nc1ccc(C[C@H](N)C(=O)N[C@@H](Cc2ccc(-c3ccccc3)cc2)C(=O)N[C@@H](CCCCN)C(=O)NCc2ccccc2)cc1` (H-[Phe(4-guanidino)]-[Bip]-Lys-NHBn): the half-life at 1 mg/ml in series [1] is 2.2 h. Besides, the MIC against Staphylococcus aureus [2] turned out to be 5 µg/mL (≈ 7.54 µM); in the series with Staphylococcus aureus [3], 10 µg/mL (≈ 15.1 µM).

For `N=C(N)NCCC[C@H](NC(=O)[C@H](Cc1ccc(-c2ccccc2)cc1)NC(=O)[C@@H](N)Cc1ccc(NC(=N)N)cc1)C(=O)NCc1ccccc1` (H-[Phe(4-guanidino)]-[Bip]-Arg-NHBn), in series [1], the half-life at 1 mg/ml is 0.5 h. Moreover, the MIC in the series with Staphylococcus aureus [2] and against Staphylococcus aureus [3] was 5 µg/mL (≈ 7.24 µM) in each case.

Turning to `N=C(N)NCCC[C@H](N)C(=O)N[C@@H](Cc1ccc(NC(=N)N)cc1)C(=O)N[C@@H](Cc1c[nH]c2ccccc12)C(=O)NCc1ccccc1` (H-Arg-[Phe(4-guanidino)]-Trp-NHBn), the half-life at 1 mg/ml in series [1] was 8 h. Also, the results for the MIC against Staphylococcus aureus [2] and in the series with Staphylococcus aureus [3] were 15 µg/mL (≈ 22.9 µM) and 50 µg/mL (≈ 76.5 µM), respectively.

As for `N=C(N)NCCC[C@H](N)C(=O)N[C@@H](Cc1ccc(N)cc1)C(=O)N[C@@H](Cc1c[nH]c2ccccc12)C(=O)NCc1ccccc1` (H-Arg-[Phe(4-NH2)]-Trp-NHBn), binding in series [4] was put at a Kd of 14.9 µM. Besides, in series [1], the t1/2 entry is listed as “Stable”. The MIC in the series with Staphylococcus aureus [2] was 75 µg/mL (≈ 123 µM); against Staphylococcus aureus [3], greater than 150 µg/mL.

As to `N=C(N)NCCC[C@H](N)C(=O)N[C@@H](Cc1ccc(-c2ccccc2)cc1)C(=O)N[C@@H](CNC(=N)N)C(=O)NCc1ccccc1` (H-Arg-[Bip]-[Agp]-NHBn), the t1/2 result in series [1] is “Stable”. In addition, the half-life at 1 mg/ml in series [5] amounted to 11.7 h; in series [6] it was 5.39 h; in series [7], 3.19 h. In addition, the MIC in the series on Staphylococcus aureus [2] and against Staphylococcus aureus [3] was 5 µg/mL (≈ 8.13 µM) throughout.

For the compound `N=C(N)NCCC[C@H](N)C(=O)N[C@@H](Cc1ccc(NC(=N)N)cc1)C(=O)N[C@@H](Cc1ccc(-c2ccccc2)cc1)C(=O)NCc1ccccc1` (H-Arg-[Phe(4-guanidino)]-[Bip]-NHBn), the half-life at 1 mg/ml in series [1] was 3.5 h. For the same compound, the MIC in the series with Staphylococcus aureus [2] is 2.5 µg/mL (≈ 3.62 µM); with Staphylococcus aureus [3], 5 µg/mL (≈ 7.24 µM).

As for `N=C(N)NCCC[C@H](NC(=O)[C@@H](N)CCCNC(=N)N)C(=O)N[C@@H](Cc1ccc(-c2ccccc2)cc1)C(=O)NCc1ccccc1` (H-Arg-Arg-[Bip]-NHBn), the half-life at 1 mg/ml in series [1] was less than 0.5 h. The MIC in the series on Staphylococcus aureus [2] and with Staphylococcus aureus [3] was 5 µg/mL (≈ 7.78 µM) in each case.

Consider `N=C(N)Nc1ccc(C[C@H](NC(=O)[C@H](Cc2ccc(-c3ccccc3)cc2)NC(=O)[C@@H](N)CCCCN)C(=O)NCc2ccccc2)cc1` (H-Lys-[Bip]-[Phe(4-guanidino)]-NHBn), for which the half-life at 1 mg/ml in series [1] is 5 h. Besides, the MIC with Staphylococcus aureus [2] and against Staphylococcus aureus [3] was 5 µg/mL (≈ 7.54 µM) each time.

In the case of `N=C(N)NCCC[C@H](NC(=O)[C@@H](N)CCCNC(=N)N)C(=O)N[C@@H](Cc1c[nH]c2ccccc12)C(=O)NCc1ccccc1` (H-Arg-Arg-Trp-NHBn), the half-life at 1 mg/ml in series [1] is less than 0.5 h. Besides, the minimal inhibitory concentration (MIC) worked out at 25 µg/mL (≈ 41.3 µM) in the series with Staphylococcus aureus [2] and 75 µg/mL (≈ 124 µM) with Staphylococcus aureus [3].
